Assay results: patent US20090170827A1, “Acid Addition Salt of Dihydropyridine Derivative” (Daiichi Sankyo Company , Limited, priority 2005, published 2009)

What was measured:
[1] = Absorbability test in dog; format: in vivo, dog (male beagle); settings: for Cmax / AUC(0-t): fasted male beagle, tetragastrin-treated, oral gelatin capsule 100 mg/body, plasma; for AUC(0-t): read-out: AUC0-24 h
Description: Tetragastrin (6 μg/kg) was intramuscularly injected to the posterior region of thigh of a fasted male beagle (body weight: about 10 kg, n=4) to make the intragastric pH acidic 30 minutes before, immediately before and 30 minutes after administration of the test compound. The test compound was encapsulated in gelatin capsules at a dose of 100 mg/body and orally administered. About 3 ml of blood was collected from the median antebrachial vein using a heparin-treated glass syringe 0.5, 1, 2, 3, 4, 6, 8 and 24 hours after the administration. The collected blood was centrifuged to obtain plasma which was cryopreserved at −20° C. until measurement of the concentration of the test compound. One hundred μl of thawed plasma was mixed with 100 μl of 50% methanol, 800 μl of purified water, 100 μl of 0.1 N aqueous hydrochloric acid and 100 μl of an internal standard solution [a solution of the d7-compound (I) in 50% methanol, 50 ng/ml]. The eluate obtained by solid phase extraction using OASIS HLB was evaporated to dryness and then dissolved in 400 μl of 75% methanol. The solution was analyzed by LC/MS/MS.
A calibration curve was prepared by the same operation as above using 100 μl of dog control plasma without drug administration and 100 μl of a calibration curve standard solution [a solution of the compound (I) in 50% methanol, 0.1-1000 ng/ml].
The LC/MS/MS analysis conditions are shown below.
System: API4000 LC/MS/MS System (manufactured by
Applied Biosystems/MDS SCIEX)
Ion source: TurboIonSpray
Turbo heater gas: Air, 650° C., 70 psi
Nebulizer gas: Air, 70 psi
Orifice voltage: Compound (I) 106 V • d7-Compound (I) 106 V
Ion spray voltage: 5500 V
Collision energy: Compound (I) 35 V • d7-Compound (I) 35 V
Measurement mode: Positive/MRM
Monitor ion: Compound (I) m/z 583->167 • d7-Compound (I) m/z 590->167
System: Agilent 1100 Series (manufactured by Agilent Technologies)
Column: Inertsil ODS-3 5 μm, 2.1 mm I.D.×150 mm (manufactured by GL Sciences)
Mobile phase: Methanol/water/difluoroacetic acid (700/300/0.75)
(§1) Column temperature: 40° C.
The area under the concentration in plasma-time curve (AUC0-24h) and the maximum concentration in plasma (Cmax) as pharmacokinetic parameters indicative of drug absorbability were calculated from the results obtained according to the aforementioned method using the compound of Example 1 and the compound (I) as test compounds.

[2] = Elution test (JP paddle method, pH 1.2); format: physicochemical; settings: for Elution rate: pH 1.2, 900 ml, paddle 250 rpm, 100 mg equivalent/capsule
Description: A test was carried out using one gelatin capsule filled with the test compound (100 mg equivalent/capsule) and 900 ml of the disintegration test first solution (The Japanese Pharmacopoeia Fourteenth Edition, pH 1.2) as a test solution according to the elution test second method (The Japanese Pharmacopoeia Fourteenth Edition, paddle method) at 250 revolutions per minute. A sinker (The Japanese Pharmacopoeia Fourteenth Edition elution test method) was used for preventing flotation of the gelatin capsule. Five, 10, 15, 20, 30, 45, 60, 75, 90, 105 and 120 minutes after the start of the elution test, about 20 ml of the test solution was filtered through a filter having a pore size of 10 μm (manufactured by VARIAN, Full Flow Filters 10 μm) and directly fed into a flow cell (optical path length: 0.5 cm) in a circulating system. The absorbance was measured by a photodiode array spectrophotometer (HP 8452A). The absorbance of the compound (I) in each test solution at the time of collection of the test solution was compared with the absorbance of the following standard solution to measure the concentration of the compound (I) in the test solution.
The standard solution was prepared as follows. About 28 mg of the compound (I) was precisely weighed and added to a 500 ml volumetric flask. Five ml of ethanol (99.5%, special grade reagent) was added to the flask and the compound (I) was dissolved while providing ultrasonic stimulation as necessary. The disintegration test first solution was added to make the volume exactly 500 ml. The resulting solution was provided as the standard solution.
The elution test system is shown below.
Elution test device: DT-600 (manufactured by JASCO)
Ultraviolet visible spectrophotometer: HP 8452A Diodearray UV-Visible Spectrophotometer (manufactured by Hewlett Packard; now Agilent Technologies)
Cell positioner: HP 89075C Multicell Transport (manufactured by Hewlett Packard)
Delivery pump: HP 89092A Multichannel Pump (manufactured by Hewlett Packard)
Elution test software: Hewlett Packard Dissolution Testing Software, Revision 03.01 (manufactured by Hewlett Packard)
Analysis wavelength: 254 to 258 nm
Control wavelength: 322 to 326 nm
Optical path length of quartz cell: 0.5 cm

Thermal stability test = format: physicochemical
Description: The test compound was placed in a glass bottle and allowed to stand under the following conditions (1) and (2). After a certain period of time had elapsed, the residual rate of the active ingredient [compound (I)] in the test compound was measured by high performance liquid chromatography.
(1): Closed state, 60° C.;
(2): Non-closed state, 40° C., humidity 75%.
The measurement conditions in high performance liquid chromatography are as follows.
Column: L-column ODS [4.6 mm×250 mm, manufactured by Chemicals Evaluation and Research Institute, Japan]
Mobile layer: acetonitrile/22 mM potassium dihydrogenphosphate buffer/methanol=455/350/195 (V/V/V) (adjusted to pH 5.5 by phosphoric acid)
as §1
Detection wavelength: 220 nm
The residual rate (%) was calculated by the following formula.
The residual rate (%)=[1−(sum of peak area percentages of impurities and decomposed products)]×100

| Cmax [1] [ng/mL] | AUC(0-t) [1] [ng·h/mL] | Elution rate ([2]; 5 min) [%] | Elution rate ([2]; 10 min) [%] | Elution rate ([2]; 15 min) [%] | Elution rate ([2]; 20 min) [%] | Elution rate ([2]; 30 min) [%] | Elution rate ([2]; 45 min) [%] | Elution rate ([2]; 60 min) [%] | Elution rate ([2]; 75 min) [%] | Elution rate ([2]; 90 min) [%] | Elution rate ([2]; 105 min) [%] | Elution rate ([2]; 120 min) [%] | SMILES | further results |
| --- | --- | --- | --- | --- | --- | --- | --- | --- | --- | --- | --- | --- | --- | --- |
| 178 | 1810 | 0.5 | 0.7 | 1.0 | 1.3 | 1.8 | 2.5 | 3.1 | 3.6 | 4.1 | 4.5 | 5.0 | CC1=C(C(=O)OC(C)C)C(c2cccc([N+](=O)[O-])c2)C(C(=O)OC2CN(C(c3ccccc3)c3ccccc3)C2)=C(N)N1 (stereo not shown) [Compound (I), 2-Amino-1,4-dihydro-6-methyl-4-(3-nitrophenyl)-3,5-pyridinedicarboxylic acid 3-(1-diphenylmethylazetidin-3-yl) ester 5-isopropyl ester, reference compound] | – |
| 248 | 2930 | 1.0 | 1.9 | 3.3 | 5.0 | 9.9 | 23.5 | 35.5 | 40.8 | 45.1 | 49.6 | 52.6 | Br.Br.CC1=C(C(=O)OC(C)C)C(c2cccc([N+](=O)[O-])c2)C(C(=O)OC2CN(C(c3ccccc3)c3ccccc3)C2)=C(N)N1 (single isomer, unassigned) [Example 1, 2-Amino-1,4-dihydro-6-methyl-4-(3-nitrophenyl)-3,5-pyridinedicarboxylic acid 3-(1-diphenylmethylazetidin-3-yl)ester 5-isopropyl ester dihydrobromide] | bioavailability and concentration in blood (AUC0-24h and Cmax), in words ([1]; oral, compared with free compound (I)): superior to those of the free compound (I); elution properties (in words) ([2]; pH 1.2, compared with free compound (I)): superior to those of the free compound (I); Residual rate of Compound (I) (Thermal stability test; Condition (1): closed state, 60° C., time 0 month): 99.9%; Residual rate of Compound (I) (Thermal stability test; Condition (1): closed state, 60° C., time 1 month): 99.7%; Residual rate of Compound (I) (Thermal stability test; Condition (1): closed state, 60° C., time 3 months): 99.7%; Residual rate of Compound (I) (Thermal stability test; Condition (1): closed state, 60° C., time 6 months): 99.6%; stability (in words) (Thermal stability test; Condition (2): non-closed state, 40° C., humidity 75%): excellent stability; Residual rate of Compound (I) (Thermal stability test; Condition (2): non-closed state, 40° C., humidity 75%, time 0 month): 99.9%; Residual rate of Compound (I) (Thermal stability test; Condition (2): non-closed state, 40° C., humidity 75%, time 1 month): 99.5%; Residual rate of Compound (I) (Thermal stability test; Condition (2): non-closed state, 40° C., humidity 75%, time 3 months): 99.1%; Residual rate of Compound (I) (Thermal stability test; Condition (2): non-closed state, 40° C., humidity 75%, time 6 months): 98.9% |
